Results on two molecules are retold here after the NIST ThermoML archive (doi:10.1016/j.fluid.2005.12.017).

Numbers after ± are expanded uncertainties.

Series [1] can be described thus: Molar enthalpy of transition or fusion. The settings on record: Crystal; DSC.
For series [2] the following is noted: for molar volume: 101.33 kPa, Pycnometric method; for Normal melting temperature: DTA.

`COC1=C(OC)C(=O)C(C/C=C(\C)CC/C=C(\C)CC/C=C(\C)CC/C=C(\C)CC/C=C(\C)CC/C=C(\C)CC/C=C(\C)CC/C=C(\C)CC/C=C(\C)CCC=C(C)C)=C(C)C1=O` [Coenzyme Q10]: in series [1], the “Molar enthalpy of transition or fusion” value amounted to 19.6 ± 0.478 kcal/mol. Besides, the molar volume in series [2] (323.15 K, Crystal) was 0.0009 ± 1e-05 m3/mol; in series [2] (323.15 K, Liquid), 0.00095 ± 1e-05 m3/mol. Also, in series [2] (Crystal), the Normal melting temperature came to 49.4 ± 0.5 °C.
Regarding `CCCCCCCCCCCCCCCC(=O)OCC(COC(=O)CCCCCCCCCCCCCCC)OC(=O)CCCCCCCCCCCCCCC` [1,2,3-propanetriyl tri(hexadecanoate)], the “Molar enthalpy of transition or fusion” value in series [1] turned out to be 28.9 ± 0.478 kcal/mol. The molar volume in series [2] (338.15 K, Crystal) worked out at 0.00087 ± 1e-05 m3/mol; in series [2] (338.15 K, Liquid) it was 0.00093 ± 1e-05 m3/mol. The Normal melting temperature in series [2] (Crystal) is 64.2 ± 0.5 °C.
